Square brackets hold non-standard residues; d marks the D form. Peptide text beside a SMILES is read from it. ξ: configuration not given here. Nva(4-oxo) = CC(=O)C[C@H](N)C(=O)O; Hyp = O=C(O)[C@@H]1C[C@@H](O)CN1; Ile(3ξ) = CCC(C)[C@H](N)C(=O)O; Thr(3ξ) = CC(O)[C@H](N)C(=O)O; Sar = CNCC(=O)O
Columns and labels:
[1] = system: cornea of rats with dry eye syndrome (ELGE); assay: Corneal permeability of fluorescent dye (corneal damage) in ELGE rats with dry eye syndrome; format: in vivo, rat; settings: Table 6, study of YDE-001 to YDE-028, 3 mg/ml, 5 μl/eye twice daily, day 14
Text: (§1) In order to evaluate the eye protection effect on dry eye syndrome by YDE-001 to YDE-028 prepared in Example 1, a total of 320 Sprague-Dawley-type male rats (OrientBio, Seungnam, Korea) were adapted for 7 days. Thereafter, dry eye syndrome was induced in 264 test rats through extraorbital lacrimal gland excision (hereinafter, ELGE). 8 test rats without the eye abnormality were subjected to a sham operation as a control group.
(§2) The rat was systemically anesthetized by inhaling a mixed gas of 2% to 3% of isoflurane (Hana Pharm. Co., Hwasung, Korea), 70% of N2O, and 28.6% of O2 using a rodent anesthesia machine (Surgivet, Waukesha, Wis., USA) and a ventilator (Model 687, Harvard Apparatus, Cambridge, UK). Thereafter, the extraorbital lacrimal gland located in the subdermal area above the masseter muscle and […] was excised through a transverse incision in a size of 10 mm on the anterior part of the left ear tragus. The skin was sutured by a general method. […] After 6 days from the ELGE operation, it was checked through the Schirmer test by measuring the amount of tear secretion whether dry eye syndrome had been induced. Meanwhile, each rat of the control group with the sham operation was checked for the presence and location of the extraorbital lacrimal gland through a skin incision, and the skin was then sutured without the excision thereof (FIG. 4).
(§3) In addition, in order to evaluate the eye protection effect on dry eye syndrome by YDE-029 to YDE-043 prepared in Example 1, a total of 200 Sprague-Dawley-type male rats (OrientBio, Seungnam, Korea) were adapted for 7 days. Dry eye syndrome was induced in 165 test rats through the ELGE. 8 test rats without the eye abnormality were subjected to the sham operation as a control group. The ELGE was carried out as described above.
(§4) For YDE-001 to YDE-028, YY-102 and the 28 YDE-series were each dissolved in physiological saline at a concentration of 3 mg/ml and administered at a dose of 5 μl/eye at 9:30 am and 3:30 pm daily for 14 days after 7 days from the ELGE operation for a total of 28 times. The DS solution was dissolved in physiological saline at a concentration of 30 mg/ml and administered at a dose of […] twice a day for 14 days after 7 days from the ELGE operation for a total of 28 times. For the sham control and the ELGE control groups, the same stimulation as the administration was applied. In order to prevent excessive eye dryness, the same volume of physiological saline was applied in the same manner in place of the test substances.
as §4, with “Further, for YDE-029 to YDE-043,” for “For YDE-001 to YDE-028,”, “YDE-029 to YDE-043, YY-102 and” for “YDE-001 to YDE-028, YY-102 and”, “and the 15 YDE-series were” for “and the 28 YDE-series were”, “the test substances (FIG. 7).” for “the test substances.”
After YDE-001 to YDE-028 were each administered to the eyes […], the changes in the corneal permeability were checked.
In order to measure the corneal permeability, Zolethyl 50™ (Virbac Lab., Carros, France), an animal anesthetic, was intraperitoneally injected at a dose of 25 mg/kg. Thereafter, saline containing a 1% (v/v) fluorescent solution (fluorescein sodium salt, Tokyo Kasei Kogyo Co., Tokyo, Japan) was applied to the eyes at a dose of 5 μl/eye. The eyes thus treated were closed and fixed with a tape. After 1 hour, the remaining fluorescent solution was removed using a cotton swab (FIG. 12). […]

[2] = Stability in aqueous solution under long-term storage conditions (related substances); format: physicochemical; settings: 25° C., 75% RH
Method: In order to confirm the stability of each test substance in an aqueous solution, […] of each sample was dissolved in 1 ml of water to a concentration of 1 mg/ml, which was then charged to a glass vial, plugged with a rubber cap, sealed with an aluminum cap, and stored under long-term storage conditions (25° C., 75% RH). The stability of the test substance was evaluated by measuring the amount of related substances at the time of one week, two weeks, four weeks, eight weeks, and twelve weeks under the long-term storage conditions.

[3] = system: rats with dry eye syndrome (extraorbital lacrimal gland excision, ELGE); assay: Amount of tear secretion (Schirmer test, cobalt chloride paper) in ELGE rats with dry eye syndrome; format: in vivo, rat; settings: for Tear Volumes, Day 7 / Tear Volumes, Day 14: Table 4, study of YDE-001 to YDE-028, ELGE rats, 3 mg/ml, 5 μl/eye twice daily; for Tear Volumes, Day 7: day 7 of administration; for Tear Volumes, Day 14: day 14 of administration; for Change in amount of tear secretion as compared with the ELGE control group: study of YDE-001 to YDE-028, 3% solution as printed, after administration for 14 days
Text: as §1, §2, §3, §4
as §4, with “Further, for YDE-029 to YDE-043,” for “For YDE-001 to YDE-028,”, “YDE-029 to YDE-043, YY-102 and” for “YDE-001 to YDE-028, YY-102 and”, “and the 15 YDE-series were” for “and the 28 YDE-series were”, “the test substances (FIG. 7).” for “the test substances.”
After 6 days from the ELGE surgery, the changes in the amount of tear secretion were measured at day 7 and day 14 after the administration of YDE-001 to YDE-043. The amount of tear secretion was measured by the […] travel distance of tears absorbed by cobalt chloride paper in a size of 1×15 mm (Toyo Roshi Kaisha, Japan).
The cobalt chloride paper was placed in the lateral canthus of a rat for 60 seconds to absorb tears (FIG. 9). The length of the area absorbed from the corner of the cobalt chloride paper was measured with an electronic digital caliper (Mytutoyo, Tokyo, Japan) (FIG. 8).

Compound	Permeability of fluorescent dye [1] [%]	Amount of related substances (after 12 weeks) [2] [%]	Tear Volumes, Day 7 [3] [mm^3]	Tear Volumes, Day 14 [3] [mm^3]	Change in amount of tear secretion as compared with the ELGE control group [3]
CC(C)C[C@H](NC(=O)CNC(=O)[C@H](Cc1c[nH]c2ccccc12)NC(=O)[C@H](CCC(N)=O)NC(=O)CNC(=O)[C@@H]1C[C@@H](O)CN1)C(=O)N[C@@H](C)C(=O)NCC(=O)N1CCC[C@H]1C(=O)N[C@@H](CCCCN)C(=O)O [YDE-014] (H-[Hyp]GQWGLAGPK-OH)	31.15 ± 10.87	6.72	3.81 ± 1.21	5.62 ± 1.85	–
CC(C)C[C@H](NC(=O)[C@@H](NC(=O)[C@H](CC(=O)O)NC(=O)[C@H](CCC(N)=O)NC(=O)CNC(=O)[C@@H]1C[C@@H](O)CN1)C(C)C)C(=O)N[C@@H](C)C(=O)NCC(=O)N1CCC[C@H]1C(=O)N[C@@H](CCCCN)C(=O)O [YDE-015] (H-[Hyp]GQDVLAGPK-OH)	15.95 ± 6.48	13.05	4.03 ± 2.19	6.65 ± 2.13	–
CCC(C)[C@H](NC(=O)[C@H](CC(=O)O)NC(=O)[C@H](CCC(N)=O)NC(=O)CNC(=O)[C@@H]1C[C@@H](O)CN1)C(=O)N[C@@H](CC(C)C)C(=O)N[C@@H](C)C(=O)NCC(=O)N1CCC[C@H]1C(=O)N[C@@H](CCCCN)C(=O)O (stereo partly drawn) [YDE-016] (H-[Hyp]GQD[Ile(3ξ)]LAGPK-OH)	24.57 ± 10.34	11.33	4.59 ± 1.13	5.98 ± 2.27	–
CC(C)C[C@H](NC(=O)[C@H](CC(C)C)NC(=O)[C@H](CC(=O)O)NC(=O)[C@H](CCC(N)=O)NC(=O)CNC(=O)[C@@H]1C[C@@H](O)CN1)C(=O)N[C@@H](C)C(=O)NCC(=O)N1CCC[C@H]1C(=O)N[C@@H](CCCCN)C(=O)O [YDE-017] (H-[Hyp]GQDLLAGPK-OH)	39.76 ± 7.42	11.88	4.00 ± 1.22	4.89 ± 1.50	did not show any significant changes
CC(C)C[C@H](NC(=O)[C@H](C)NC(=O)[C@H](CC(=O)O)NC(=O)[C@H](CCC(N)=O)NC(=O)CNC(=O)[C@@H]1C[C@@H](O)CN1)C(=O)N[C@@H](C)C(=O)NCC(=O)N1CCC[C@H]1C(=O)N[C@@H](CCCCN)C(=O)O [YDE-018] (H-[Hyp]GQDALAGPK-OH)	38.19 ± 10.96	25.39	3.75 ± 1.54	4.99 ± 1.60	–
CC(C)C[C@H](NC(=O)[C@H](Cc1ccccc1)NC(=O)[C@H](CC(=O)O)NC(=O)[C@H](CCC(N)=O)NC(=O)CNC(=O)[C@@H]1C[C@@H](O)CN1)C(=O)N[C@@H](C)C(=O)NCC(=O)N1CCC[C@H]1C(=O)N[C@@H](CCCCN)C(=O)O [YDE-019] (H-[Hyp]GQDFLAGPK-OH)	40.39 ± 12.57	13.43	4.84 ± 1.39	4.52 ± 1.07	did not show any significant changes
CC(C)C[C@H](NC(=O)[C@H](Cc1ccc(O)cc1)NC(=O)[C@H](CC(=O)O)NC(=O)[C@H](CCC(N)=O)NC(=O)CNC(=O)[C@@H]1C[C@@H](O)CN1)C(=O)N[C@@H](C)C(=O)NCC(=O)N1CCC[C@H]1C(=O)N[C@@H](CCCCN)C(=O)O [YDE-020] (H-[Hyp]GQDYLAGPK-OH)	47.84 ± 13.47	21.54	3.41 ± 1.47	4.20 ± 1.35	did not show any significant changes
CC(C)C[C@H](NC(=O)[C@H](Cc1c[nH]c2ccccc12)NC(=O)[C@H](CC(=O)O)NC(=O)[C@H](CCC(N)=O)NC(=O)CNC(=O)[C@@H]1C[C@@H](O)CN1)C(=O)N[C@@H](C)C(=O)NCC(=O)N1CCC[C@H]1C(=O)N[C@@H](CCCCN)C(=O)O [YDE-021] (H-[Hyp]GQDWLAGPK-OH)	37.00 ± 10.49	21.33	4.08 ± 1.33	4.90 ± 1.13	did not show any significant changes
CC(C)C[C@H](NC(=O)[C@H](Cc1c[nH]cn1)NC(=O)[C@H](CC(=O)O)NC(=O)[C@H](CCC(N)=O)NC(=O)CNC(=O)[C@@H]1C[C@@H](O)CN1)C(=O)N[C@@H](C)C(=O)NCC(=O)N1CCC[C@H]1C(=O)N[C@@H](CCCCN)C(=O)O [YDE-022] (H-[Hyp]GQDHLAGPK-OH)	47.82 ± 10.01	19.23	3.19 ± 0.67	4.10 ± 0.95	did not show any significant changes
CC(C)C[C@H](NC(=O)[C@H](CO)NC(=O)[C@H](CC(=O)O)NC(=O)[C@H](CCC(N)=O)NC(=O)CNC(=O)[C@@H]1C[C@@H](O)CN1)C(=O)N[C@@H](C)C(=O)NCC(=O)N1CCC[C@H]1C(=O)N[C@@H](CCCCN)C(=O)O [YDE-023] (H-[Hyp]GQDSLAGPK-OH)	26.51 ± 8.18	30.66	5.32 ± 2.30	5.78 ± 2.23	–
CC(C)C[C@H](NC(=O)[C@@H](NC(=O)[C@H](CC(=O)O)NC(=O)[C@H](CCC(N)=O)NC(=O)CNC(=O)[C@@H]1C[C@@H](O)CN1)C(C)O)C(=O)N[C@@H](C)C(=O)NCC(=O)N1CCC[C@H]1C(=O)N[C@@H](CCCCN)C(=O)O (stereo partly drawn) [YDE-024] (H-[Hyp]GQD[Thr(3ξ)]LAGPK-OH)	30.63 ± 10.41	20.59	3.85 ± 1.30	5.72 ± 1.36	–
CC(=O)C[C@H](NC(=O)[C@H](CCC(N)=O)NC(=O)CNC(=O)[C@@H]1C[C@@H](O)CN1)C(=O)N(C)CC(=O)N[C@@H](CC(C)C)C(=O)N[C@@H](C)C(=O)NCC(=O)N1CCC[C@H]1C(=O)N[C@@H](CCCCN)C(=O)O [YDE-025] (H-[Hyp]GQ[Nva(4-oxo)][Sar]LAGPK-OH)	47.10 ± 11.45	5.17	3.21 ± 0.72	4.72 ± 2.19	did not show any significant changes

Reference: patent publication US11613558B2, “Peptides and pharmaceutical compositions for treating eye diseases” (Yuyu Pharma, Inc., priority 2018, dated 2023)
